Experimental data: US20230233569A1 (Revolution Medicines, Inc., priority 2020, published 2023)

Assays:
[1] = tested on: AKT1/2/3 (Ser473) phosphorylation (mTORC2) in MDA-MB-468 cells; assay: Cell based AlphaLISA assay, mTOR kinase cellular assay: inhibition of p-Akt (S473) in MDA-MB-468 cells; details: Homo sapiens, read-out: pIC50 for Inhibition of mTORC1 and mTORC2 Substarte Phosphorylation p-AKT1/2/3-(S473) (converted)
Procedure, shortened: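 MDA-MB-468 cells treated with compound at 0.017-1,000 nM for two to four hours at 37° C, then lysed. Phospho-AKT1/2/3 S473, 4EBP1 T37/46 and P70S6K T389 quantified by AlphaLISA SureFire Ultra in duplicate; IC50 from normalized regression with control-based normalization.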

[2] = tested on: 4EBP1 (Thr37/46) phosphorylation (mTORC1) in MDA-MB-468 cells; assay: Cell based AlphaLISA assay, mTOR kinase cellular assay: inhibition of p-4E-BP1 (T37/46) in MDA-MB-468 cells; details: Homo sapiens, read-out: pIC50 for Inhibition of mTORC1 and mTORC2 Substarte Phosphorylation p-4E-BP1-(T37/46) (converted)
Procedure: (§1) Cell Based AlphaLISA Assays for Determining IC50 For Inhibition of P-Akt (S473), P-4E-BP1 (T37/46), and P-P70S6K (T389) in MDA-MB-468 Cells
(§2) mTOR Kinase Cellular Assay
(§3) To measure functional activity of mTORC1 and mTORC2 in cells the phosphorylation of 4EBP1 (Thr37/46) and P70S6K (Thr389), and AKT1/2/3 (Ser473) was monitored using AlphaLisa SureFire Ultra Kits (Perkin Elmer). MDA-MB-468 cells (ATCC® HTB-132) were cultured in 96-well tissue culture plates and treated with compounds in the disclosure at concentrations varying from 0.017-1,000 nM for two to four hours at 37° C. Incubations were terminated by removal of the assay buffer and addition of lysis buffer provided with the assay kit. Samples were processed according to the manufacturer's instructions. The Alpha signal from the respective phosphoproteins was measured in duplicate using a microplate reader (Envision, Perkin-Elmer or Spectramax M5, Molecular Devices). Inhibitor concentration response curves were analyzed using normalized IC50 regression curve fitting with control based normalization.

[3] = tested on: P70S6K (Thr389) phosphorylation (mTORC1) in MDA-MB-468 cells; assay: Cell based AlphaLISA assay, mTOR kinase cellular assay: inhibition of p-P70S6K (T389) in MDA-MB-468 cells; details: Homo sapiens, read-out: pIC50 for Inhibition of mTORC1 and mTORC2 Substarte Phosphorylation p-P70S6K-(T389) (converted)
Procedure: as §1, §2, §3

AsPC-1 (K-Ras G12D) [4] = assay: Potency assay: pERK; format: cell-based; details: Homo sapiens, ASPC1, read-out: pERK EC50
KRAS G12C = KRAS G12C (Homo sapiens, UniProt P01116+P62937, G12C); assay: Ras-Raf disruption / FRET / MOA assay (BRAF RBD); format: biochemical; details: KRAS G12C FRET data IC50, Ras-Raf disruption, with Cyclophilin A
Procedure, shortened: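 TR-FRET read-out after 1.5 h with anti-His Eu-W1024 (10 nM) and anti-GST APC (50 nM), following 3 h at 25 °C of compound (top 30 μM, 3-fold, 10 points) with 25 μM Cyclophilin A, 12.5 nM GMPPNP-loaded K-Ras G12C and 50 nM BRAF RBD; IC50 reported.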

KRAS G12D = KRAS G12D (Homo sapiens, UniProt P01116+P62937, G12D); assay: Ras-Raf disruption / FRET / MOA assay (BRAF RBD); format: biochemical; details: KRAS G12D FRET data IC50, Ras-Raf disruption, with Cyclophilin A
Procedure, shortened: (§4)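 Compound-induced Ras–Cyclophilin A ternary complex disrupting BRAF RBD binding, read as IC50 from reduced TR-FRET ratio relative to DMSO. Final: Ras-GMPPNP 12.5 nM, BRAF RBD 50 nM, Cyclophilin A 25 μM, top compound 30 μM (3-fold, 10 points); 3 h at 25 °C, then 1.5 h with detection antibodies.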

KRAS G12V = KRAS G12V (Homo sapiens, UniProt P01116+P62937, G12V); assay: Ras-Raf disruption / FRET / MOA assay (BRAF RBD); format: biochemical; details: KRAS G12V FRET data IC50, Ras-Raf disruption, with Cyclophilin A
Procedure, shortened: as §4

KRAS WT = KRAS WT (Homo sapiens, UniProt P01116+P62937); assay: Ras-Raf disruption / FRET / MOA assay (BRAF RBD); format: biochemical; details: KRAS WT FRET data IC50, Ras-Raf disruption, with Cyclophilin A
Procedure, shortened: as §4

KRAS G13D = KRAS G13D (Homo sapiens, UniProt P01116+P62937, G13D); assay: Ras-Raf disruption / FRET / MOA assay (BRAF RBD); format: biochemical; details: KRAS G13D FRET data IC50, Ras-Raf disruption, with Cyclophilin A
Procedure, shortened: as §4

NRAS Q61K = NRAS Q61K (Homo sapiens, UniProt P01111+P62937, Q61K); assay: Ras-Raf disruption / FRET / MOA assay (BRAF RBD); format: biochemical
Procedure, shortened: as §4

KRAS G12S = KRAS G12S (Homo sapiens, UniProt P01116+P62937, G12S); assay: Ras-Raf disruption / FRET / MOA assay (BRAF RBD); format: biochemical; details: KRAS G12S FRET data IC50, Ras-Raf disruption, with Cyclophilin A
Procedure, shortened: as §4

NRAS WT = NRAS WT (Homo sapiens, UniProt P01111+P62937); assay: Ras-Raf disruption / FRET / MOA assay (BRAF RBD); format: biochemical
Procedure, shortened: as §4

NRAS Q61R = NRAS Q61R (Homo sapiens, UniProt P01111+P62937, Q61R); assay: Ras-Raf disruption / FRET / MOA assay (BRAF RBD); format: biochemical
Procedure, shortened: as §4

KRAS Q61H = KRAS Q61H (Homo sapiens, UniProt P01116+P62937, Q61H); assay: Ras-Raf disruption / FRET / MOA assay (BRAF RBD); format: biochemical
Procedure, shortened: as §4

NRAS G12C = NRAS G12C (Homo sapiens, UniProt P01111+P62937, G12C); assay: Ras-Raf disruption / FRET / MOA assay (BRAF RBD); format: biochemical; details: NRAS G12C FRET data IC50, NRAS G12C
Procedure, shortened: as §4

KRAS G13C = KRAS G13C (Homo sapiens, UniProt P01116+P62937, G13C); assay: Ras-Raf disruption / FRET / MOA assay (BRAF RBD); format: biochemical; details: KRAS G13C FRET data IC50, Ras-Raf disruption, with Cyclophilin A
Procedure, shortened: as §4

NCI-H358 (K-Ras G12C) = assay: CellTiter-Glo cell viability assay; format: cell-based; details: Homo sapiens, NCI-H358, 120 h, read-out: H358 Cell Viability assay data IC50, K-Ras G12C, 5-day treatment
Procedure, shortened: (§5)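 Cells already in plates received compound by direct dispensing. After incubation to day 5, plates sat at room temperature roughly 30 minutes, then ATP-based luminescence was measured and values derived from a four-parameter fit of DMSO-normalized data.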

AsPC-1 (K-Ras G12D) [5] = assay: CellTiter-Glo cell viability assay; format: cell-based; details: Homo sapiens, ASPC1, 120 h, read-out: AsPC-1 Cell Viability assay data IC50, K-Ras G12D, 5-day treatment
Procedure, shortened: as §5

Sequence of NRAS G12C (P01111 whole entry G12C): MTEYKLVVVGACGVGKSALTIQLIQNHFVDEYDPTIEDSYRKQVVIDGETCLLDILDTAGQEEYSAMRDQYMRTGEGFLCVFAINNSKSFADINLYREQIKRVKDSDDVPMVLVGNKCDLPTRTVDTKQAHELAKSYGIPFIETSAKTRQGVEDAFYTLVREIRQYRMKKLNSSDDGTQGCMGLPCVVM
Sequence of NRAS G12C (P62937 whole entry): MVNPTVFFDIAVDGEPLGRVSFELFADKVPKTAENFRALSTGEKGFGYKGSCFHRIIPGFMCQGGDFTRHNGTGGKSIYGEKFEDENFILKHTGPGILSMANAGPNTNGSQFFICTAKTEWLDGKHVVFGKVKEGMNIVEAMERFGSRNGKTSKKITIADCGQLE
Sequence of NRAS WT (P01111 whole entry): as the sequence (P01111 whole entry G12C) above, with C12G counted along it
Sequence of NRAS WT (P62937 whole entry): as the sequence (P62937 whole entry) above
Sequence of KRAS G12C (P01116 1-169 isoform P01116-2 G12C limits assumed): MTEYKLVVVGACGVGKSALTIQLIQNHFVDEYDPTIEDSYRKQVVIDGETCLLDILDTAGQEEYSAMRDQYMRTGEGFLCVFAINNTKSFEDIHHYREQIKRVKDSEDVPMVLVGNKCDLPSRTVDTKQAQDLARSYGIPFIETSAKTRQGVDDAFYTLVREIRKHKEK
Sequence of KRAS G12C (P62937 whole entry): as the sequence (P62937 whole entry) above
Sequence of KRAS G13D (P01116 1-169 isoform P01116-2 G13D limits assumed): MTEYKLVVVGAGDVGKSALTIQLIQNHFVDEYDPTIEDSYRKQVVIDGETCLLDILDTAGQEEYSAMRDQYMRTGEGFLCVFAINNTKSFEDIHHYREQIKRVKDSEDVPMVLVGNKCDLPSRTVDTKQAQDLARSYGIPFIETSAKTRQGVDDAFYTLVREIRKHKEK
Sequence of KRAS G13D (P62937 whole entry): as the sequence (P62937 whole entry) above
Sequence of KRAS Q61H (P01116 1-169 isoform P01116-2 Q61H limits assumed): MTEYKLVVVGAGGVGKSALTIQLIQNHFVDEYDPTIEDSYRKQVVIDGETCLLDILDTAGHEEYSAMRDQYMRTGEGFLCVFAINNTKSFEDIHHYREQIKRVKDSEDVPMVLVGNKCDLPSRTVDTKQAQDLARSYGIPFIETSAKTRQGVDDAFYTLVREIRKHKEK
Sequence of KRAS Q61H (P62937 whole entry): as the sequence (P62937 whole entry) above
Sequence of NRAS Q61K (P01111 whole entry Q61K): as the sequence (P01111 whole entry G12C) above, with C12G, Q61K counted along it
Sequence of NRAS Q61K (P62937 whole entry): as the sequence (P62937 whole entry) above
Sequence of KRAS G12S (P01116 1-169 isoform P01116-2 G12S limits assumed): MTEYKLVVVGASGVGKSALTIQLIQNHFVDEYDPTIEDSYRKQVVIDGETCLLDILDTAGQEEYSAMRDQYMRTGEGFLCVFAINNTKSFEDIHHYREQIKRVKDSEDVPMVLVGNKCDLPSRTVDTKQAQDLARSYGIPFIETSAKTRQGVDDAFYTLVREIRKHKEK
Sequence of KRAS G12S (P62937 whole entry): as the sequence (P62937 whole entry) above
Sequence of KRAS WT (P01116 1-169 isoform P01116-2 limits assumed): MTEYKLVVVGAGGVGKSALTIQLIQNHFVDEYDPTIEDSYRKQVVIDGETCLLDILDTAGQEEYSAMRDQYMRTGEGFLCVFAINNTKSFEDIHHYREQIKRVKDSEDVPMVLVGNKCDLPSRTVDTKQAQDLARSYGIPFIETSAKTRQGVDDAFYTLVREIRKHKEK
Sequence of KRAS WT (P62937 whole entry): as the sequence (P62937 whole entry) above
Sequence of KRAS G12V (P01116 1-169 isoform P01116-2 G12V limits assumed): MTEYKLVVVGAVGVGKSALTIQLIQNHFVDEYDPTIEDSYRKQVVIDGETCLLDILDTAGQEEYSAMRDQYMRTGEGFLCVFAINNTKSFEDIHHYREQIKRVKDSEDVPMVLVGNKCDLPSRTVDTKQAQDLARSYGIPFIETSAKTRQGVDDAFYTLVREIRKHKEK
Sequence of KRAS G12V (P62937 whole entry): as the sequence (P62937 whole entry) above
Sequence of NRAS Q61R (P01111 whole entry Q61R): as the sequence (P01111 whole entry G12C) above, with C12G, Q61R counted along it
Sequence of NRAS Q61R (P62937 whole entry): as the sequence (P62937 whole entry) above
Sequence of KRAS G13C (P01116 1-169 isoform P01116-2 G13C limits assumed): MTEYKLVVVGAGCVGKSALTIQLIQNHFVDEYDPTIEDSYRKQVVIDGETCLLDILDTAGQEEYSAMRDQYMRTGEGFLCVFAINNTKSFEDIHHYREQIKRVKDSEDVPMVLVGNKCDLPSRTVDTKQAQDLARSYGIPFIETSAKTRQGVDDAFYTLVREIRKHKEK
Sequence of KRAS G13C (P62937 whole entry): as the sequence (P62937 whole entry) above
Sequence of KRAS G12D (P01116 1-169 isoform P01116-2 G12D limits assumed): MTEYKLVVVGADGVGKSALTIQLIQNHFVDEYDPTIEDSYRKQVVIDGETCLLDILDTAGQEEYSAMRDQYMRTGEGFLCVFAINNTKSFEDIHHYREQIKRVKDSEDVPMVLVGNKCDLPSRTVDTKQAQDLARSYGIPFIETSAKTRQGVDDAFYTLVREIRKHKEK
Sequence of KRAS G12D (P62937 whole entry): as the sequence (P62937 whole entry) above

Row | Structure (SMILES) | IC50 [1] [nM] | IC50 [2] [nM] | IC50 [3] [nM] | EC50 (AsPC-1 (K-Ras G12D) [4]) [nM] | IC50 (KRAS G12C) [nM] | IC50 (KRAS G12D) [nM] | IC50 (KRAS G12V) [nM] | IC50 (KRAS WT) [nM] | IC50 (KRAS G13D) [nM] | IC50 (NRAS Q61K) [nM] | IC50 (KRAS G12S) [nM] | IC50 (NRAS WT) [nM] | IC50 (NRAS Q61R) [nM] | IC50 (KRAS Q61H) [nM] | IC50 (NRAS G12C) [nM] | IC50 (KRAS G13C) [nM] | IC50 (NCI-H358 (K-Ras G12C)) [nM] | IC50 (AsPC-1 (K-Ras G12D) [5]) [nM]
1 | CO[C@H]1C[C@@H]2CC[C@@H](C)[C@@](O)(O2)C(=O)C(=O)N2CCCC[C@H]2C(=O)O[C@H]([C@H](C)C[C@@H]2CC[C@@H](OC(=O)NCCOCCC(=O)NCc3cnc(N4CCN(C(=O)CCOCCN5CCN(c6ncc(C(=O)NCCCCn7nc(-c8cnc9[nH]ccc9c8)c8c(N)ncnc87)cn6)CC5)CC4)nc3)[C@H](OC)C2)CC(=O)[C@H](C)/C=C(\C)[C@@H](O)[C@@H](OC)C(=O)[C@H](C)C[C@H](C)/C=C/C=C/C=C/1C [Example 68] | > 1000 | ≤ 3.16 | ≤ 1 |  |  |  |  |  |  |  |  |  |  |  |  |  |  | 
2 | CO[C@H]1C[C@@H]2CC[C@@H](C)[C@@](O)(O2)C(=O)C(=O)N2CCCC[C@H]2C(=O)O[C@H]([C@H](C)C[C@@H]2CC[C@@H](OC(=O)NCc3cnc(N4CCN(C(=O)CCOCCN5CCN(c6ncc(C(=O)N7CCc8cc(Cn9nc(-c%10cnc%11[nH]ccc%11c%10)c%10c(N)ncnc%109)ccc8C7)cn6)CC5)CC4)nc3)[C@H](OC)C2)CC(=O)[C@H](C)/C=C(\C)[C@@H](O)[C@@H](OC)C(=O)[C@H](C)C[C@H](C)/C=C/C=C/C=C/1C [Example 52] |  | ≤ 3.16 | ≤ 1 |  |  |  |  |  |  |  |  |  |  |  |  |  |  | 
3 | CO[C@H]1C[C@@H]2CC[C@@H](C)[C@@](O)(O2)C(=O)C(=O)N2CCCC[C@H]2C(=O)O[C@H]([C@H](C)C[C@@H]2CC[C@@H](OC(=O)NCc3cnc(N4CCN(C(=O)CCOCCN5CCN(c6ncc(C(=O)NCCOCCC(=O)N7CCc8cc(Cn9nc(-c%10ccc%11oc(N)nc%11c%10)c%10c(N)ncnc%109)ccc8C7)cn6)CC5)CC4)nc3)[C@H](OC)C2)CC(=O)[C@H](C)/C=C(\C)[C@@H](O)[C@@H](OC)C(=O)[C@H](C)C[C@H](C)/C=C/C=C/C=C/1C [Example 64] | 3.16 to 31.6 | ≤ 3.16 | ≤ 1 |  |  |  |  |  |  |  |  |  |  |  |  |  |  | 
4 | CO[C@H]1C[C@@H]2CC[C@@H](C)[C@@](O)(O2)C(=O)C(=O)N2CCCC[C@H]2C(=O)O[C@H]([C@H](C)C[C@@H]2CC[C@@H](OC(=O)NCc3cnc(N4CCN(c5ncc(C(=O)N6CCN(c7ncc(C(=O)N8CCc9cc(Cn%10nc(-c%11cnc%12[nH]ccc%12c%11)c%11c(N)ncnc%11%10)ccc9C8)cn7)CC6)cn5)CC4)nc3)[C@H](OC)C2)CC(=O)[C@H](C)/C=C(\C)[C@@H](O)[C@@H](OC)C(=O)[C@H](C)C[C@H](C)/C=C/C=C/C=C/1C [Example 61] | > 1000 |  | ≤ 1 |  |  |  |  |  |  |  |  |  |  |  |  |  |  | 
5 | CCn1c(-c2cccnc2[C@H](C)OC)c2c3cc(ccc31)-c1cc(O)cc(c1)C[C@H](NC(=O)[C@H](C(C)C)N(C)C(=O)CN(C)C(=O)[C@@H]1CN1CCCC#N)C(=O)N1CCC[C@H](N1)C(=O)OCC(C)(C)C2 (stereo partly shown) [Example 274] |  |  |  | < 5000 | < 10 | 10 to 100 | 10 to 100 | 10 to 100 | 10 to 100 | 100 to 1000 | 10 to 100 | 10 to 100 | 100 to 1000 | 10 to 100 | < 10 | 10 to 100 | < 10 | 100 to 1000
6 | CCn1c(-c2cccnc2[C@H](C)OC)c2c3cc(ccc31)-c1cc(O)cc(c1)C[C@H](NC(=O)[C@H](C(C)C)N(C)C(=O)CN(C)C(=O)[C@H]1N[C@H]1C(F)(F)F)C(=O)N1CCC[C@H](N1)C(=O)OCC(C)(C)C2 [Example 259] |  |  |  | < 5000 | 10 to 100 | 100 to 1000 | 10 to 100 | 10 to 100 | 10 to 100 | 100 to 1000 | 10 to 100 | 10 to 100 | 100 to 1000 | 10 to 100 | 10 to 100 | 10 to 100 | 10 to 100 | 100 to 1000
7 | CCn1c(-c2cc(N3CCN(C)CC3)cnc2[C@H](C)OC)c2c3cc(ccc31)-c1cc(O)cc(c1)C[C@H](NC(=O)[C@H](C1CCCC1)N(C)C(=O)CN(C)C(=O)[C@H]1CN1)C(=O)N1CCC[C@H](N1)C(=O)OCC(C)(C)C2 [Example 209, (2R)—N-(2-(((1S)-1-cyclopentyl-2-(((6^3S,4S)-1^1-ethyl-2^5-hydroxy-1^2-(2-((S)-1-methoxyethyl)-5-(4-methylpiperazin-1-yl)pyridin-3-yl)-10,10-dimethyl-5,7-dioxo-6^1,6^2,6^3,6^4,6^5,6^6-hexahydro-1^1H-8-oxa-1(5,3)-indola-6(1,3)-pyridazina-2(1,3)-benzenacycloundecaphane-4-yl)amino)-2-oxoethyl)(methyl)amino)-2-oxoethyl)-N-methylaziridine-2-carboxamide] |  |  |  | < 5000 | < 10 | 10 to 100 | 10 to 100 | 10 to 100 | 10 to 100 | 100 to 1000 | 10 to 100 | 10 to 100 | 10 to 100 | < 10 | < 10 | < 10 | < 10 | < 10
8 | CCn1c(-c2cccnc2[C@H](C)OC)c2c3cc(ccc31)-c1cc(O)cc(c1)C[C@H](NC(=O)[C@H](C(C)C)N(C)C(=O)CN(C)C(=O)[C@@H]1CN1CC1(C)COC1)C(=O)N1CCC[C@H](N1)C(=O)OCC(C)(C)C2 (stereo partly shown) [Example 280] |  |  |  | < 5000 | < 10 | 10 to 100 | 10 to 100 | 10 to 100 | 100 to 1000 | 100 to 1000 | 10 to 100 | 10 to 100 | 100 to 1000 | 10 to 100 | < 10 | 10 to 100 | < 10 | 1000 to 10000
